In ChEMBL document CHEMBL1201862, “PubChem BioAssay data set” (2004):
Active and inactive are the calls of the source.

Key:
[1] = biological target: Nuclear receptor subfamily 5 group A member 2 (Homo sapiens, UniProt O00482); assay type: functional, cell-based;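 further: HEK293T cells transfected with LRH-1 and a StAR promoter luciferase reporter; potency for inhibitors that lower LRH-1 driven reporter light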
[2] = biological target: Steroidogenic factor 1 (Homo sapiens, UniProt Q13285); experiment: Counterscreen for inverse agonists of the liver receptor homolog-1 (LRH-1; NR5A2): Luminescence-based cell-based high throughput dose response assay to identify inverse agonists of the Steroidogenic Factor 1 Nuclear Receptor (SF1; NR5A1).; assay type: functional
[3] = nonselective StAR promoter luciferase inhibitors – cell-based, luminescence, luciferase reporter, counter-screen for LRH-1 inverse agonist project, dose response (AID 651969); assay type: functional
[4] = test system: Vero; experiment: viability of Vero cells under compound – cytotoxicity control for flavivirus capping enzyme inhibitors (AID 588742); assay type: functional; settings: Chlorocebus sabaeus
[5] = biological target: Genome polyprotein (dengue virus type 2, UniProt P29990); experiment: flavivirus cap methylation enzyme inhibition – biochemical, confirmation dose response, primary screen (AID 588689); assay type: functional
[6] = biological target: Photoreceptor-specific nuclear receptor (Homo sapiens, UniProt Q9Y5X4); assay type: functional, cell-based;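 further: CHO-S cells with Gal4-NCOR and VP16-NR2E3 two-hybrid luciferase reporter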
[7] = test system: HeLa; experiment: ATP-based viability loss in HeLa cells – cell-based, CellTiter-Glo luminescence, cherry-pick samples, cytotoxicity control for MITF activator project, dose response (AID 540259); assay type: functional; settings: Homo sapiens
[8] = test system: H4; experiment: Luminescence Cell-Based Dose Response HTS to Identify Activators of 5'UTR Stem-Loop Driven Prion Protein mRNA Translation in H4 Neuroglioblastoma Cells. [Related pubchem assays: 1829 (Project Summary), 1814 (Primary HTS)]; assay type: functional; settings: Homo sapiens
[9] = biological target: Mitochondrial peptide methionine sulfoxide reductase (Bos taurus, UniProt P54149); assay type: functional;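 further: absorbance read-out, biochemical high-throughput dose-response screen for MsrA inhibitors, confirmatory; recombinant bovine MsrA coupled to E. coli TrxB with NADPH and selenocystamine; potency is for inhibitors of MsrA activity on DMSO substrate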
[10] = biological target: Delta-type opioid receptor (Homo sapiens, UniProt P41143); experiment: Counterscreen for agonists of heterodimerization of the mu 1 (OPRM1) and delta 1 (OPRD1) opioid receptors: Luminescence-based cell-based high throughput dose response assay to identify agonists of OPRD1 homodimerization. [Related pubchem assays (depositor defined):AID504326, AID504355, AID504692, AID504904, AID504905]; assay type: functional
[11] = biological target: Mu-type opioid receptor (Homo sapiens, UniProt P35372); experiment: Counterscreen for agonists of heterodimerization of the mu 1 (OPRM1) and delta 1 (OPRD1) opioid receptors: Luminescence-based cell-based high throughput dose response assay to identify agonists of OPRM1 homodimerization.; assay type: functional;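 further: U2OS cells expressing OPRM1 and beta-arrestin as split beta-galactosidase partners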
[12] = biological target: 5-hydroxytryptamine receptor 5A (Homo sapiens, UniProt P47898); experiment: Counterscreen for agonists of OPRM1-OPRD1 heterodimerization: luminescence-based cell-based high throughput dose response assay to identify agonists of 5-hydroxytryptamine (serotonin) 5A receptor (HTR5A). [Related pubchem assays (depositor defined):AID504326, AID504355, AID504692, AID504904, AID504905]; assay type: functional
[13] = biological target: T1, Protein skinhead-1 (Caenorhabditis elegans, UniProt P34707); assay type: functional
T1 sequence (P34707 whole entry): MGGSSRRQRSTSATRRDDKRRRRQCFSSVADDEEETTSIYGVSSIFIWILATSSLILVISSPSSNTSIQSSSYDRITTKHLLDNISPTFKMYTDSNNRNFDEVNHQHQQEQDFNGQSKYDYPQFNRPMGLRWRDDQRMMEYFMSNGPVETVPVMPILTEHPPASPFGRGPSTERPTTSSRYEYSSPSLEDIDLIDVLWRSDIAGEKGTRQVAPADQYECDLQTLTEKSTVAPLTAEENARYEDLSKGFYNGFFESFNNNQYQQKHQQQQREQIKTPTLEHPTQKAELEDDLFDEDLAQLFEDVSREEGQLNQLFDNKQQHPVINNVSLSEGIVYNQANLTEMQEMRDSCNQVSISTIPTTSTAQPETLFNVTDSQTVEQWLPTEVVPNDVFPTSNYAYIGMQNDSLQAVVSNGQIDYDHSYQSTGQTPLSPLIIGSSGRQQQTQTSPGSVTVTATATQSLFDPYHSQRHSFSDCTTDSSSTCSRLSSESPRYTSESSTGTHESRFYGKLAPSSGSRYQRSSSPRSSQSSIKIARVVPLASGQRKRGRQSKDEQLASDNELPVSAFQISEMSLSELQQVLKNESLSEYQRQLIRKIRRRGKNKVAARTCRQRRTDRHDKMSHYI

[14] = biological target: T2, Short transient receptor potential channel 4 (Mus musculus, UniProt Q9QUQ5); experiment: calcium entry via TRPC4 opening agents – cell-based, HEK293 TRPC4/mu-opioid, Fluo-4 calcium, dose response (AID 434937); assay type: functional
T2 sequence (Q9QUQ5 whole entry): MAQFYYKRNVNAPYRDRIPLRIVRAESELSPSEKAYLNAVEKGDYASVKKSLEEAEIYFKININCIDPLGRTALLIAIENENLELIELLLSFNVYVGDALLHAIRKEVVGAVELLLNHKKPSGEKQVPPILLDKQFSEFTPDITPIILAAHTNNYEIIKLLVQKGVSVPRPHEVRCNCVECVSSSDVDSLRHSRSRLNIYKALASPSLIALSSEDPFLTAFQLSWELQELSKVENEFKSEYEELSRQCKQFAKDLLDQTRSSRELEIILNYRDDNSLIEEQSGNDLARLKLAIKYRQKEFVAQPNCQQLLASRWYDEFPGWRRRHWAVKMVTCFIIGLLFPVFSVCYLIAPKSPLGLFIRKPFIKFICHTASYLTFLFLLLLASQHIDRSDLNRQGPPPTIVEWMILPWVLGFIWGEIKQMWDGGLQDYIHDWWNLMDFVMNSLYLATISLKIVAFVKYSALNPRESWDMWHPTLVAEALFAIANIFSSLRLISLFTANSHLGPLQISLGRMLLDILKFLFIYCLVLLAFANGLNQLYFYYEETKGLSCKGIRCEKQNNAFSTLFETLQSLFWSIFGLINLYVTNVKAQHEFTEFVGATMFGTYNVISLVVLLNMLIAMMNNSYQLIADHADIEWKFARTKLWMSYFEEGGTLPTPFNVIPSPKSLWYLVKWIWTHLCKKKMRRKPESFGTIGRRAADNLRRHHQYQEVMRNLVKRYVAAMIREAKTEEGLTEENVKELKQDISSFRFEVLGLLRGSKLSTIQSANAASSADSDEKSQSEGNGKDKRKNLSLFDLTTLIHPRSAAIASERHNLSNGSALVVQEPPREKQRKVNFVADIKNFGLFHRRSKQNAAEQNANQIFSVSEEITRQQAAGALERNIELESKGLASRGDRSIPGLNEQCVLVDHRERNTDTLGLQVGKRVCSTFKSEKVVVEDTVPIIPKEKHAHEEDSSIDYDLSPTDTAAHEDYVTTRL

[15] = test system: Escherichia coli; experiment: microbe, parasite or virus in culture
[16] = test system: Escherichia coli; experiment: microbe, parasite or virus in culture; remark: listed apart in the source
[17] = biological target: T3, Aryl hydrocarbon receptor (Homo sapiens, UniProt P35869); settings: Potency;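 further: confirmatory quantitative high-throughput screen measuring activation of the AhR signaling pathway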
T3 sequence (P35869 whole entry): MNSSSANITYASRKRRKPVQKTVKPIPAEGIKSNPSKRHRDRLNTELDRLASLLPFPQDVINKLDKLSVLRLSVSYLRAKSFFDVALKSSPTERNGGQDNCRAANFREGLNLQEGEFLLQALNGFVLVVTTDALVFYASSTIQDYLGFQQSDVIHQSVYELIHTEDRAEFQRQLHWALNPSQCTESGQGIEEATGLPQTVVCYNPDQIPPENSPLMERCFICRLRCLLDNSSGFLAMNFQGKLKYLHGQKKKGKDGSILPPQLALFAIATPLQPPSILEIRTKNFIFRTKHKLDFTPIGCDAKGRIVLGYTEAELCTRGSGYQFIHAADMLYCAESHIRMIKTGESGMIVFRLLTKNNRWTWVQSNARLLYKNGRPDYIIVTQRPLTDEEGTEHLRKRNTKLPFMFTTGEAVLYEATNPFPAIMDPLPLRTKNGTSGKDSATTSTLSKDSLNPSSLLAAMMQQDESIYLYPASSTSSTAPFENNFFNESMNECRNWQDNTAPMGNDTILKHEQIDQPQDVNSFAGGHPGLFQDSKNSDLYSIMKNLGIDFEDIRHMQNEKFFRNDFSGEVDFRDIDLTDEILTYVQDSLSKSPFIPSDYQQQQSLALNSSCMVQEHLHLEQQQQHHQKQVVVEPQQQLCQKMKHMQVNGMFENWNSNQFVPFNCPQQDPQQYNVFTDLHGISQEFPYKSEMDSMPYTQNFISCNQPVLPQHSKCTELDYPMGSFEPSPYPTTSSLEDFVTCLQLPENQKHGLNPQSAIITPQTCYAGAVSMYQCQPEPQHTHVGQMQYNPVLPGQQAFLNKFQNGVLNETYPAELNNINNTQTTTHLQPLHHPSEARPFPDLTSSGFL

[18] = biological target: Serine/threonine-protein kinase pim-1 (Homo sapiens, UniProt P11309); assay type: functional
[19] = biological target: Cell division cycle 7-related protein kinase (Homo sapiens, UniProt O00311); assay type: functional;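 further: value obtained from a kinome-wide kinase panel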
[20] = biological target: Homeodomain-interacting protein kinase 2 (Homo sapiens, UniProt Q9H2X6); assay type: functional;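 further: measured within a kinome-wide kinase profiling panel, HIPK2 being one panel member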
[21] = biological target: MAP kinase-interacting serine/threonine-protein kinase 2 (Homo sapiens, UniProt Q9HBH9); assay type: functional
[22] = biological target: T4, Interleukin-1 receptor-associated kinase 4 (Homo sapiens, UniProt Q9NWZ3); assay type: functional
T4 sequence (Q9NWZ3 whole entry): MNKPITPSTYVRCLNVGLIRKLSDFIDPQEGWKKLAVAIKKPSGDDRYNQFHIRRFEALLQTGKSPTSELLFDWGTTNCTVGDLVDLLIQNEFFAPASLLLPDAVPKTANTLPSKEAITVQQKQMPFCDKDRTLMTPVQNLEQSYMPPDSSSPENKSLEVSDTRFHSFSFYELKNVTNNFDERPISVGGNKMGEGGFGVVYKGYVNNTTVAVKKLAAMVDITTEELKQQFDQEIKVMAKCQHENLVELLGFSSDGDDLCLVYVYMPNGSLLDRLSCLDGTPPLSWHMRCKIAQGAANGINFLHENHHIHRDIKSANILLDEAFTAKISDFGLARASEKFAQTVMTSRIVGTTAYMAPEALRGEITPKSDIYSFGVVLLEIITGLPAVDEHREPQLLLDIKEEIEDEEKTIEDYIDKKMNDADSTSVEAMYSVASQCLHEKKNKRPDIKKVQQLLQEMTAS

[23] = biological target: Glycogen synthase kinase-3 beta (Homo sapiens, UniProt P49841); assay type: functional;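 further: value comes from a broad kinome profiling panel, with GSK3B as the panel member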
[24] = biological target: Dual specificity protein kinase CLK4 (Homo sapiens, UniProt Q9HAZ1); assay type: functional
[25] = biological target: Mitogen-activated protein kinase kinase kinase kinase 4 (Homo sapiens, UniProt O95819); assay type: functional
[26] = biological target: DNA dC->dU-editing enzyme APOBEC-3G (Homo sapiens, UniProt Q9HC16); experiment: inhibition of APOBEC3G ssDNA deamination – biochemical, fluorescence, single-stranded DNA substrate, SAR follow-up (AID 602136); assay type: functional; settings: read-out: IC50_Mean
[27] = biological target: DNA dC->dU-editing enzyme APOBEC-3A (Homo sapiens, UniProt P31941); experiment: SAR analysis of small molecule inhibitors of APOBEC3A DNA Deaminase via a fluorescence-based single-stranded DNA deaminase assay.; assay type: functional; settings: read-out: IC50_Mean
[28] = biological target: cAMP-dependent protein kinase catalytic subunit alpha (Homo sapiens, UniProt P17612); assay type: functional
[29] = test system: Streptococcus sp. 'group A'; experiment: Streptococcus pyogenes SK(-)GAS viability under kanamycin – luminescence, BacTiterGlo, confirmation, counter-screen for streptokinase expression inhibitor project, dose response (AID 1900); assay type: functional, organism-based
[30] = test system: Streptococcus; experiment: GAS UMAA2166 growth inhibition – luminescence, BacTiterGlo, counter-screen for streptokinase expression inhibitor project, dose response (AID 1915); assay type: functional, organism-based;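 further: potency for reduction of bacterial viability or growth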

Sequence of Cell division cycle 7-related protein kinase (O00311 whole entry): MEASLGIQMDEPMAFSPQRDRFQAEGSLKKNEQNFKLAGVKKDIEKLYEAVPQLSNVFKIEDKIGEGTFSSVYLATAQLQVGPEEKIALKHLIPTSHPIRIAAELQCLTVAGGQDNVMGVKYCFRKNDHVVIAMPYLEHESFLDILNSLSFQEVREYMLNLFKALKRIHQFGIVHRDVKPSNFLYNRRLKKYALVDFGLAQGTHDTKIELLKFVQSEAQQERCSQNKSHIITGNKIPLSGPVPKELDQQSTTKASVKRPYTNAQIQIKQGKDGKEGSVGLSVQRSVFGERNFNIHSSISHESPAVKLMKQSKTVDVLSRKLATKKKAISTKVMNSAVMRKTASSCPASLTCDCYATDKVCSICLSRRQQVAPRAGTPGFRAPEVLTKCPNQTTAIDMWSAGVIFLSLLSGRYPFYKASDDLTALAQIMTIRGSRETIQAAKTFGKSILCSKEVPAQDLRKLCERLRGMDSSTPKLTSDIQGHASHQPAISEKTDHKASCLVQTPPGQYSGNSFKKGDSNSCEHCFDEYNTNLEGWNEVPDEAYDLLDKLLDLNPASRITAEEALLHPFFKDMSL
Sequence of Mitogen-activated protein kinase kinase kinase kinase 4 (O95819 whole entry): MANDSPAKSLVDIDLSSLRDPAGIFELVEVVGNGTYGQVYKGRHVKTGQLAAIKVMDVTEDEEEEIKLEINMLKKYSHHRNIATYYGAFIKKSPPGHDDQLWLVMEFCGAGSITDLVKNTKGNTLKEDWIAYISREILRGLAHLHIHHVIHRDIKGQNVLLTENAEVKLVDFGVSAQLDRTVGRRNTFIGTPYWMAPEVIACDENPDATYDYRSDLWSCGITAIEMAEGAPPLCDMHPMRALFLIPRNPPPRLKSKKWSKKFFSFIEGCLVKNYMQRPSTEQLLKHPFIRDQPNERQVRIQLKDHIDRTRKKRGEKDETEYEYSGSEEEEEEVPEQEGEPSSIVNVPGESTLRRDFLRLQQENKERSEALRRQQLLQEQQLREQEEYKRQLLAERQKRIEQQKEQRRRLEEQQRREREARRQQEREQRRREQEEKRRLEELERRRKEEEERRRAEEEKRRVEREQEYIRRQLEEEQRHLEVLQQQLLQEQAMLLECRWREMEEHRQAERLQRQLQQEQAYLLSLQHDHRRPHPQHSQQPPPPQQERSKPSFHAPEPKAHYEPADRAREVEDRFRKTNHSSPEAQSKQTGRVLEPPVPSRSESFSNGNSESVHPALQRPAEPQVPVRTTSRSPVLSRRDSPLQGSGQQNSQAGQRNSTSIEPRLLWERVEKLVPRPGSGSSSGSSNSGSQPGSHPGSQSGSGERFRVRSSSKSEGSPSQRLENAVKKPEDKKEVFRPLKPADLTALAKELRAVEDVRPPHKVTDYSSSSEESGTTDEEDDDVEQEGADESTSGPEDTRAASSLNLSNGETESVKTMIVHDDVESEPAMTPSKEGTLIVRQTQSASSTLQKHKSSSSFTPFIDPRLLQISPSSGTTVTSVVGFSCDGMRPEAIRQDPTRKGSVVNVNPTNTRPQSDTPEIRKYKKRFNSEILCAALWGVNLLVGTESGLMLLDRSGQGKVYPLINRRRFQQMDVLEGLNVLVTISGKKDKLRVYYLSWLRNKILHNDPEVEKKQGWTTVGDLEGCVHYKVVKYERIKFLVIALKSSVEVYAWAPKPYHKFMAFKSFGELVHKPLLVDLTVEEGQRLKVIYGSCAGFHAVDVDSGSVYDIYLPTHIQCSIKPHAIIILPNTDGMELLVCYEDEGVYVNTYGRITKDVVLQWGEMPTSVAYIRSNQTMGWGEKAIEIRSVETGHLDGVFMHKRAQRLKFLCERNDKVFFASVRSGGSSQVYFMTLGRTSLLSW
Sequence of Delta-type opioid receptor (P41143 whole entry): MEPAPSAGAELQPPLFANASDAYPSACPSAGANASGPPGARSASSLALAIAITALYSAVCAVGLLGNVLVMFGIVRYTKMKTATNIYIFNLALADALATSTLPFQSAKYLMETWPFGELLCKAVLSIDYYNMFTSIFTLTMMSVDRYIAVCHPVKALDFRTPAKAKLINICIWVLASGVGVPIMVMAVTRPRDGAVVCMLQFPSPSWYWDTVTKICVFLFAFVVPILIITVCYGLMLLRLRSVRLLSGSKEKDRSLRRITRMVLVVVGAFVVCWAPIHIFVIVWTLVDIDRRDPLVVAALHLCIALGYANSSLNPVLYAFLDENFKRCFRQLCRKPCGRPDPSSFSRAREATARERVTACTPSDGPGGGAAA
Sequence of Glycogen synthase kinase-3 beta (P49841 whole entry): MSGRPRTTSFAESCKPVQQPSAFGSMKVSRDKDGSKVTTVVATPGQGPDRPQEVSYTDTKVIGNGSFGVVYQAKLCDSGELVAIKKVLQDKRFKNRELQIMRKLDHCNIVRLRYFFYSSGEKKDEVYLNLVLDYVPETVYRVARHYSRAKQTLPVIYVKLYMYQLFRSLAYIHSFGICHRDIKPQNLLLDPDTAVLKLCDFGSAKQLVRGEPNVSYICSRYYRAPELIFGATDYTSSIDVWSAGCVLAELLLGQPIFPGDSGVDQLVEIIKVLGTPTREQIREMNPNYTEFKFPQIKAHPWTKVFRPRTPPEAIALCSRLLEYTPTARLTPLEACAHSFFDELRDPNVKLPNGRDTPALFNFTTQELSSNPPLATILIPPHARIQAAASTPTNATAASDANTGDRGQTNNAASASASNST
Sequence of MAP kinase-interacting serine/threonine-protein kinase 2 (Q9HBH9 whole entry): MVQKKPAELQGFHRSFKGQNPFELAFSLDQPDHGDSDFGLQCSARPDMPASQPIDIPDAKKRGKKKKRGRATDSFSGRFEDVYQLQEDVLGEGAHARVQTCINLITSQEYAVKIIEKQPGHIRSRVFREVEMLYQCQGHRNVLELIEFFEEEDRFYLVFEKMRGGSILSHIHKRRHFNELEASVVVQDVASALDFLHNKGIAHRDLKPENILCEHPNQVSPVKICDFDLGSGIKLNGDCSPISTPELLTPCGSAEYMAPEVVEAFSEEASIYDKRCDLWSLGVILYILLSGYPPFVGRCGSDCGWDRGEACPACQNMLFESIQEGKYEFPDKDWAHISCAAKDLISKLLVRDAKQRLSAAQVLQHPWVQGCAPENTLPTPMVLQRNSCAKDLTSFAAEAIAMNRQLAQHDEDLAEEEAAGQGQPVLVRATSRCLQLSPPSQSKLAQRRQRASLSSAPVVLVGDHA
Sequence of Homeodomain-interacting protein kinase 2 (Q9H2X6 whole entry): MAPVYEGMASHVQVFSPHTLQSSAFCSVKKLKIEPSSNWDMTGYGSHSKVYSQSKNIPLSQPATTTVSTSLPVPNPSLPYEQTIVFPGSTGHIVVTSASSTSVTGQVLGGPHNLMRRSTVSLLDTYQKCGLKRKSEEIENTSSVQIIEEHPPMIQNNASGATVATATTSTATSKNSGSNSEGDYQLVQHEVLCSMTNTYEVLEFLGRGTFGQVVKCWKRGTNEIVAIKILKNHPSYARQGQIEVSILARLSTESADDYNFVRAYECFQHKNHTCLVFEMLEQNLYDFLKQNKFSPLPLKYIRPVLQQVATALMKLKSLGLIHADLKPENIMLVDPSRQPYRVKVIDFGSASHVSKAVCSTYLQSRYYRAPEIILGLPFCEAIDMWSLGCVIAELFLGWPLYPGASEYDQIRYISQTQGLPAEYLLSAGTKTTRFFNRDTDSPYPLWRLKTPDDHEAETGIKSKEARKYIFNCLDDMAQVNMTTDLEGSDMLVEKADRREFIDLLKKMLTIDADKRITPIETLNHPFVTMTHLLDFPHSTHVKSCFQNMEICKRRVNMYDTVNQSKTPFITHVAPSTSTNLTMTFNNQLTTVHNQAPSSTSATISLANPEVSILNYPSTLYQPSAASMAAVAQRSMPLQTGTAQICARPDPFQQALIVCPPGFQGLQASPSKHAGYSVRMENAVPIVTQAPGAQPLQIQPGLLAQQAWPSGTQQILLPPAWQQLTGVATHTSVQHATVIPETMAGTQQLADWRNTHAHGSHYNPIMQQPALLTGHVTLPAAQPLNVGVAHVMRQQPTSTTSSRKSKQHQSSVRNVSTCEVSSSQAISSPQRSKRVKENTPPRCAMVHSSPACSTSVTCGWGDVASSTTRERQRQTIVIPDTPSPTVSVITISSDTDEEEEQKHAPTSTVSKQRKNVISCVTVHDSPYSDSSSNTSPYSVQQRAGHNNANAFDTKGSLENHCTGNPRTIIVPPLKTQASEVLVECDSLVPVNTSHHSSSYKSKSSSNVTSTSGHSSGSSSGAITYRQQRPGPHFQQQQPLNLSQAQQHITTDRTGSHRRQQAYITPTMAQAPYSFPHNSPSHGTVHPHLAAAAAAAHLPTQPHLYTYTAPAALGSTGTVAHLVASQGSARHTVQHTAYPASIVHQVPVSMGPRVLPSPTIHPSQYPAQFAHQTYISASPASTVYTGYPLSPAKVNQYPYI
Sequence of 5-hydroxytryptamine receptor 5A (P47898 whole entry): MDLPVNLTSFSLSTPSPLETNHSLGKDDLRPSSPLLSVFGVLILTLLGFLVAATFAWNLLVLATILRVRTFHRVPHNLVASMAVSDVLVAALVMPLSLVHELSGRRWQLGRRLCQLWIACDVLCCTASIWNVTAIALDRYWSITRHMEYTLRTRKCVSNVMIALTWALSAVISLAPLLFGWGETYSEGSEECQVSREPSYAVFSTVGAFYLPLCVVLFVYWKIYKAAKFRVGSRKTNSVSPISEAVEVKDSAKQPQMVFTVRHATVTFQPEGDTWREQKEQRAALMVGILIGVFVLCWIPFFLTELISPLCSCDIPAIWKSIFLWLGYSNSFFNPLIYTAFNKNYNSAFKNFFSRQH
Sequence of Mu-type opioid receptor (P35372 whole entry): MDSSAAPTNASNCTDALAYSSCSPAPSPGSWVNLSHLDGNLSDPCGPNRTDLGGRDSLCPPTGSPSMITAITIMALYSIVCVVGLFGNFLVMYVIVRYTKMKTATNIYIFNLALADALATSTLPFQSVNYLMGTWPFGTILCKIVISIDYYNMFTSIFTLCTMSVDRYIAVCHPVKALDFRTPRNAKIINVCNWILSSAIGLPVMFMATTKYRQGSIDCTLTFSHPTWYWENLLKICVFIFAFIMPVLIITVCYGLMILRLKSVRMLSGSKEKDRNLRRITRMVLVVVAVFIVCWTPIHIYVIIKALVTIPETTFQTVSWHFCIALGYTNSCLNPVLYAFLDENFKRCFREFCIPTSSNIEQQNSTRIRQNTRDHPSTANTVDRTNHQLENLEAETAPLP

## CC(=O)Nc1ccc(NC(=O)COC(=O)Cc2c[nH]c3ccccc23)cc1
[1]
  IC50: 2.64 µM (active)
[2]
  IC50: 2.07 µM (active)
[3]
  IC50: 35.9 µM (inactive)

## Cc1ccc([C@@H]2CC=C(C(=O)O)[C@H](c3ccc(C(C)(C)C)cc3)N2S(=O)(=O)c2ccc(C)cc2)cc1
[4]
  CC50: > 40 µM (active)
[5]
  IC50: 39.8 µM (active)
[6]
  IC50: 5.74 µM (active)

## CC(NS(=O)(=O)c1cccc(Cl)c1)C(=O)Nc1ccc(-c2nc3ccccc3s2)cc1 (stereo not drawn)
[7]
  AC50: > 350 µM (inactive)

## Cc1ccc(NC(=O)c2ccccc2Cl)c(Cl)c1
[7]
  AC50: 84.8 µM (active)

## Cc1ccc(Nc2c([N+](=O)[O-])nn(-c3ccccc3)[n+]2[O-])c(C)c1
[8]
  EC50: 9.37 µM (active)
[9]
  IC50: 155 µM (inactive)

## OC(CN1CCN(C(c2ccccc2)c2ccccc2)CC1)c1ccccc1 (stereo not drawn)
[10]
  EC50: > 92.6 µM (inactive)
[11]
  EC50: > 92.6 µM (inactive)
[12]
  EC50: > 92.6 µM (inactive)
[13]
  IC50: > 100 µM (inactive)

## CCOC(=O)C1(CCOC)CCN(Cc2ccccc2-c2ccco2)CC1
[14]
  EC50: 0.299 µM (active)
[10]
  EC50: > 92.5 µM (inactive)
[11]
  EC50: > 92.5 µM (inactive)
[12]
  EC50: > 92.5 µM (inactive)

## CC(C)(C)c1ccc(S(=O)(=O)N2CCSC2)cc1
[15]
  AC50: 37.1 µM (active)
[16]
  AC50: 31.3 µM (active)

## CCOP(=S)(OCC)Oc1nc(Cl)n(C(C)C)n1
[17]
  AC50: 39.8 µM (inconclusive)

## Cc1ccccc1-c1c(-c2ccc3[nH]nc(C)c3c2)nnn1Cc1ccccc1
[18]
  Ki: 0.251 µM (active)
[19]
  Ki: 0.00251 µM (active)
[20]
  Ki: 2.51 µM (active)
[21]
  Ki: 0.158 µM (active)
[22]
  Ki: > 10 µM (inactive)
[23]
  Ki: 0.0126 µM (active)
[24]
  Ki: 0.00794 µM (active)
[25]
  Ki: 0.158 µM (active)

## COCc1nnc(NC(=O)Cc2ccc(Cl)cc2)s1
[26]
  IC50: > 99 µM (inactive)
[27]
  IC50: > 99 µM (inactive)

## FC(F)(F)c1ccccc1CNc1nccc(-c2c[nH]c3ncccc23)n1
[18]
  Ki: 0.501 µM (active)
[19]
  Ki: 0.00126 µM (active)
[20]
  Ki: 0.02 µM (active)
[21]
  Ki: 0.01 µM (active)
[22]
  Ki: 0.2 µM (active)
[23]
  Ki: 0.0126 µM (active)
[28]
  Ki: 0.0631 µM (active)
[25]
  Ki: 0.02 µM (active)

## CN1CCN(c2c(F)cc3c(=O)c(C(=O)O)cn4c3c2OCN4C)CC1 [MARBOFLOXACIN]
[29]
  EC50: 2.79 µM (active)
[30]
  EC50: 3.07 µM (active)
[15]
  AC50: 1.12 µM (active)
[16]
  AC50: 4.63 µM (active)
